Reference: ChEMBL document CHEMBL5104148, “Discovery of derivatives from Spartina alterniflora-sourced moiety as xanthine oxidase inhibitors to lower uric acid” (Bioorg Med Chem Lett, 2022)

Columns and labels:
[1] = Cytotoxicity against human L02 cells assessed as reduction in cell viability incubated for 24 hrs by MTT assay; type: toxicity, cell-based
Mus musculus [2] = assay: Anti-hyperuricemic activity against hypoxanthine and oteracil potassium induced hyperuricemia in Kunming mouse model assessed as alanine aminotransferase level at 5 mg/kg, IG administered daily (reference value: 28.05 +/- 8.478 U/L); type: functional
Mus musculus [3] = assay: Anti-hyperuricemic activity against hypoxanthine and oteracil potassium induced hyperuricemia in Kunming mouse model assessed as creatinine level at 5 mg/kg, IG administered daily (reference value: 59.12 +/- 7.198 uM); type: functional
Mus musculus [4] = assay: Anti-hyperuricemic activity against hypoxanthine and oteracil potassium induced hyperuricemia in Kunming mouse model assessed as total bilirubin level at 5 mg/kg, IG administered daily (reference value: 12.05 +/- 4.92 uM); type: functional
Mus musculus [5] = assay: Anti-hyperuricemic activity against hypoxanthine and oteracil potassium induced hyperuricemia in Kunming mouse model assessed as uric acid level at 5 mg/kg, IG administered daily (reference value: 631.6 +/- 103.1 uM); type: functional
Mus musculus [6] = assay: Anti-hyperuricemic activity against hypoxanthine and oteracil potassium induced hyperuricemia in Kunming mouse model assessed as blood urea nitrogen level at 5 mg/kg, IG administered daily (reference value: 53.09 +/- 1.937 mg/dl); type: functional
[7] = Cmax in rat at 1 mg/kg, iv measured after 24 hrs; type: ADME, organism-based; set-up: time 24 hrs, dose 1 mg/kg, route iv; settings: in vivo
[8] = Elimination half life in rat at 3 mg/kg, po measured after 24 hrs; type: ADME, organism-based; settings: in vivo, read-out: beta t1/2 (converted)
[9] = AUC(0 to infinity) in rat at 1 mg/kg, iv measured after 24 hrs; type: ADME, organism-based; set-up: dose 1 mg/kg, time 24 hrs, route iv; settings: in vivo
[10] = Oral bioavailability in rat at 3 mg/kg measured after 24 hrs; type: ADME, organism-based; settings: in vivo
[11] = Clearance in rat at 1 mg/kg, iv measured after 24 hrs; type: ADME, organism-based; settings: in vivo
[12] = Tmax in rat at 1 mg/kg, iv measured after 24 hrs; type: ADME, organism-based; settings: in vivo
[13] = Cmax in rat at 3 mg/kg, po measured after 24 hrs; type: ADME, organism-based; set-up: time 24 hrs, dose 3 mg/kg, route po; settings: in vivo
[14] = AUC(0 to t) in rat at 1 mg/kg, iv measured after 24 hrs; type: ADME, organism-based; set-up: dose 1 mg/kg, time 24 hrs, route iv; settings: in vivo
[15] = Elimination half life in rat at 1 mg/kg, iv measured after 24 hrs; type: ADME, organism-based; settings: in vivo, read-out: beta t1/2 (converted)
[16] = AUC(0 to t) in rat at 3 mg/kg, po measured after 24 hrs; type: ADME, organism-based; set-up: dose 3 mg/kg, time 24 hrs, route po; settings: in vivo
[17] = Volume of distribution in rat at 1 mg/kg, iv measured after 24 hrs; type: ADME, organism-based; settings: in vivo
[18] = Tmax in rat at 3 mg/kg, po measured after 24 hrs; type: ADME, organism-based; settings: in vivo
[19] = AUC(0 to infinity) in rat at 3 mg/kg, po measured after 24 hrs; type: ADME, organism-based; set-up: dose 3 mg/kg, time 24 hrs, route po; settings: in vivo
[20] = biological target: Xanthine dehydrogenase/oxidase (Homo sapiens, UniProt P47989); assay: Inhibition of xanthine oxidase (unknown origin) at 10 uM relative to control
Xanthine dehydrogenase/oxidase, sequence (P47989 whole entry): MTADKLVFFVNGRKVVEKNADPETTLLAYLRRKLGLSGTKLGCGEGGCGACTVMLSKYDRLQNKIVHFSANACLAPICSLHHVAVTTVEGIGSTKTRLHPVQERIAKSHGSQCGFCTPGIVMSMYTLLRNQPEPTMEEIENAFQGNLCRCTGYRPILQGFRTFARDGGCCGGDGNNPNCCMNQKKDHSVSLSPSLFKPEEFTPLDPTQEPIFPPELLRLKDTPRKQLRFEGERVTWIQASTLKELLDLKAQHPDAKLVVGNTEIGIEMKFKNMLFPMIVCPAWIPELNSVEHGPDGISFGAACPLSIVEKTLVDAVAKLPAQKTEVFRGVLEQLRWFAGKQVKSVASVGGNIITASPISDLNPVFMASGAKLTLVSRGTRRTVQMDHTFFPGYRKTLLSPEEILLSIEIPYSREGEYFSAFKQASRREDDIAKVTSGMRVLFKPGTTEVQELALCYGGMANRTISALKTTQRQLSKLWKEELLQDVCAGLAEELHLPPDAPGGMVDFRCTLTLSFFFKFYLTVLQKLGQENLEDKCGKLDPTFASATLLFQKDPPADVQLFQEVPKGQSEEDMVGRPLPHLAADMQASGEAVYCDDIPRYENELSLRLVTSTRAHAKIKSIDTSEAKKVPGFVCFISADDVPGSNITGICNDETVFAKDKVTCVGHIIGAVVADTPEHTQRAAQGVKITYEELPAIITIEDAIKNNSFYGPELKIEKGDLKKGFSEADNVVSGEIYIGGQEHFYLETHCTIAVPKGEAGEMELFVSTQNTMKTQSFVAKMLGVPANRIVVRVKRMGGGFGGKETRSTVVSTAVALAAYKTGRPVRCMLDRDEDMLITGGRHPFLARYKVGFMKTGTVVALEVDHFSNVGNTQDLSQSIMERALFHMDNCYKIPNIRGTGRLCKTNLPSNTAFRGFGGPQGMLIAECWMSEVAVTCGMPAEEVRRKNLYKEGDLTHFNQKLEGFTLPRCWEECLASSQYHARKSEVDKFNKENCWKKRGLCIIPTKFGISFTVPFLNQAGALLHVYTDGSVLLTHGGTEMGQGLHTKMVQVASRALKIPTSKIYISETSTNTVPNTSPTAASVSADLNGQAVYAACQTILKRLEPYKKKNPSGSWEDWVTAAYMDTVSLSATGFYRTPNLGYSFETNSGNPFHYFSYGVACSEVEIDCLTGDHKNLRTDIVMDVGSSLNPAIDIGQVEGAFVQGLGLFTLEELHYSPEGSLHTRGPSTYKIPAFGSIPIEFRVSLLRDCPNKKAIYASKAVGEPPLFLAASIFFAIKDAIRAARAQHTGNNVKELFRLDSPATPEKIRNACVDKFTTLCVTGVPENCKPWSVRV

With `CCCCS(=O)(=O)Oc1ccc(/C=C/C(=O)Nc2ccccc2C)cc1OC` the CC50 at 24 h [1] was 56.1 µM.
For `CCCCS(=O)(=O)Oc1ccc(/C=C/C(=O)Nc2ccc(Cl)cc2)cc1OC`, the CC50 at 24 h [1] was 81.2 µM.
With `CCCCS(=O)(=O)Oc1ccc(/C=C/C(=O)Nc2cccc(C)c2)cc1OC` the CC50 at 24 h [1] was 33.6 µM.
In the case of `COc1cc(/C=C/C(=O)Nc2cccc(C)c2)ccc1OS(=O)(=O)c1ccc(Cl)cc1`, the Activity (Mus musculus [2]) is reported as 25.21 U/L, the Activity (Mus musculus [3]) is reported as 45.88 µM and the CC50 at 24 h [1] is reported as 73.5 µM. It also gave an Activity (Mus musculus [4]) of 8.296 µM, an Activity (Mus musculus [5]) of 552.9 µM and an Activity (Mus musculus [6]) of 33.45 mg/dL.
`CCCCS(=O)(=O)Oc1ccc(/C=C/C(=O)OCCC)cc1OC` showed a CC50 at 24 h [1] of 61.8 µM.
Molecule `CCCCS(=O)(=O)Oc1ccc(/C=C/C(=O)Nc2ccc(C)cc2)cc1OC` has a CC50 at 24 h [1] of 26.8 µM.
In the case of `CCCCS(=O)(=O)Oc1ccc(/C=C/C(=O)Nc2ccccc2I)cc1OC`, the CC50 at 24 h [1] is reported as 24.5 µM.
`CCCCOC(=O)/C=C/c1ccc(OS(=O)(=O)CCCC)c(OC)c1` showed a CC50 at 24 h [1] of 115 µM.
In the case of `COc1cc(/C=C/C(=O)OCC(C)C)ccc1OS(=O)(=O)c1ccc(Cl)cc1`, the CC50 at 24 h [1] is reported as 102 µM.
Molecule `CCOC(=O)/C=C/c1ccc(OS(=O)(=O)c2ccc(Cl)cc2)c(OC)c1` has a CC50 at 24 h [1] of 137 µM.
With `COC(=O)/C=C/c1ccc(OS(=O)(=O)c2ccc(Cl)cc2)c(OC)c1` the CC50 at 24 h [1] was 99.5 µM.
`CCCOC(=O)/C=C/c1ccc(OS(=O)(=O)c2ccc(Cl)cc2)c(OC)c1` showed a CC50 at 24 h [1] of 150 µM.
`CCCCOC(=O)/C=C/c1ccc(OS(=O)(=O)c2ccc(Cl)cc2)c(OC)c1` gave a CC50 at 24 h [1] of 14 µM.
Work on `COc1cc(/C=C/C(=O)Nc2ccc(I)cc2)ccc1OS(=O)(=O)c1ccc(Cl)cc1` yielded a CC50 at 24 h [1] of 39.4 µM.
For `CCCCS(=O)(=O)Oc1ccc(/C=C/C(=O)Nc2ccccc2)cc1OC`, the CC50 at 24 h [1] was 3.32 µM.
With `CCCCS(=O)(=O)Oc1ccc(/C=C/C(=O)OCC(C)C)cc1OC` the CC50 at 24 h [1] was 63.8 µM.
With `CCCCS(=O)(=O)Oc1ccc(/C=C/C(=O)Nc2ccccc2Br)cc1OC` the CC50 at 24 h [1] was 5 µM.
For `CCCCS(=O)(=O)Oc1ccc(/C=C/C(=O)OCC)cc1OC`, the Activity (Mus musculus [2]) was 29.23 U/L, the Cmax [7] was 1930 ng/mL and the half-life [8] was 79.2 min. For the same molecule, the AUC(0-inf) [9] was 851 ng·h/mL, the bioavailability [10] was 63.7% and the clearance [11] was 19.8 mL/min/kg. It also gave an Activity (Mus musculus [3]) of 34.38 µM, a CC50 at 24 h [1] of 14.4 µM and a Tmax [12] of 6 min. The Cmax [13] was 1030 ng/mL, the Activity (Mus musculus [4]) was 8.557 µM and the Activity (Mus musculus [5]) was 295 µM. The AUC(0-t) at 24 h [14] was 847 ng·h/mL, the Activity (Mus musculus [6]) was 30.48 mg/dL and the half-life [15] was 34.2 min. It also gave an AUC(0-t) at 24 h [16] of 1620 ng·h/mL, a Vd [17] of 0.996 L/kg and a Tmax [18] of 8.34 min. It also gave an AUC(0-inf) [19] of 1640 ng·h/mL.
Molecule `CCCCS(=O)(=O)Oc1ccc(/C=C/C(=O)Nc2ccc(CC)cc2)cc1OC` has a CC50 at 24 h [1] of 89 µM.
Work on `CCCCS(=O)(=O)Oc1ccc(/C=C/C(=O)OC)cc1OC` yielded a CC50 at 24 h [1] of 208 µM.
`Oc1ncnc2[nH]ncc12` [ALLOPURINOL] showed an Activity (Mus musculus [2]) of 32.11 U/L, an Activity (Mus musculus [3]) of 71.97 µM and a CC50 at 24 h [1] of 6.84 µM. For the same molecule, the Activity (Mus musculus [4]) was 10.36 µM, the Activity (Mus musculus [5]) was 309.2 µM and the Activity (Mus musculus [6]) was 43.64 mg/dL. The inhibition at 10 µM [20] was 45.6%.
